{"source": "paper PMC6128713", "about": "(Saudi Pharmaceutical Journal : SPJ, 2018)", "key": {"[1]": {"test_system": "glutamate-induced 45Ca2+ uptake into synaptosomes of rat brain cortex", "test": "Effect on glutamate-induced 45Ca2+ uptake into synaptosomes of rat brain cortex", "format": "biochemical, Wistar rats", "conditions": "for Percentage 45Ca2+ of Control (Control – 100%): 200 μM glutamate, 5 min, 37 °C; for overall inhibiting activity on calcium ion uptake, in words: whole concentration range 0.01–100 μM"}, "[2]": {"format": "physicochemical"}}, "note": "“And” between values parts separate entries of the source, which are not always exact repeats. Identical values can stand only once. Like-named read-outs stand apart in the source and are kept apart here.", "data": [{"smiles": "COc1ccc2c(c1)c1c(n2CCc2n[nH]c(=S)n2C)CCN(C)C1", "note": "[III, 5-[2-(8-Methoxy-2-methyl-1,2,3,4-tetrahydropyrido[4,3-b]indol-5-yl)ethyl]-4-methyl-2,4-dihydro[1,2,4]triazole-3-thione]", "values": [{"measurement": "Percentage 45Ca2+ of Control (Control – 100%)", "setting": "[1]; compound 0.01 μM", "value": "86.7 ± 4.0", "unit": "%"}, {"measurement": "Percentage 45Ca2+ of Control (Control – 100%)", "setting": "[1]; compound 0.1 μM", "value": "57.5 ± 8.3", "unit": "%"}, {"measurement": "Percentage 45Ca2+ of Control (Control – 100%)", "setting": "[1]; compound 0.5 μM", "value": "83.0 ± 7.9", "unit": "%"}, {"measurement": "Percentage 45Ca2+ of Control (Control – 100%)", "setting": "[1]; compound 1 μM", "value": "83.4 ± 12.7", "unit": "%"}, {"measurement": "Percentage 45Ca2+ of Control (Control – 100%)", "setting": "[1]; compound 5 μM", "value": "86.6 ± 4.5", "unit": "%"}, {"measurement": "Percentage 45Ca2+ of Control (Control – 100%)", "setting": "[1]; compound 10 μM", "value": "85.8 ± 15.2", "unit": "%"}, {"measurement": "Percentage 45Ca2+ of Control (Control – 100%)", "setting": "[1]; compound 50 μM", "value": "93.1 ± 12.8", "unit": "%"}, {"measurement": "Percentage 45Ca2+ of Control (Control – 100%)", "setting": "[1]; compound 100 μM", "value": "96.1 ± 13.2", "unit": "%"}, {"measurement": "maximal effect on calcium ion uptake (inhibiting ability)", "setting": "[1]; concentration of 0.1 μM", "value": 42.5, "unit": "%"}, {"measurement": "inhibition of glutamate-induced calcium ion uptake", "setting": "[1]; concentration of 1 μM", "value": "~17", "unit": "%"}, {"measurement": "overall inhibiting activity on calcium ion uptake, in words", "setting": "[1]", "value": "highest inhibiting activity within a wide concentration range (0.01–10 μM)"}, {"measurement": "mole fraction solubility (x)", "setting": "[2]; 1-octanol, 293.15 K", "value": 0.71, "unit": "x · 10^4"}, {"measurement": "A, parameter of the correlation equation lnx=A-B/T", "setting": "[2]; 1-octanol, 293.15–313.15 K", "value": "7.10 ± 0.15"}, {"measurement": "B, parameter of the correlation equation lnx=A-B/T", "setting": "[2]; 1-octanol, 293.15–313.15 K", "value": "4876 ± 47"}, {"measurement": "mole fraction solubility (x)", "setting": "[2]; 1-octanol, 298.15 K", "value": 0.93, "unit": "x · 10^4"}, {"measurement": "ΔGsol0, standard molar dissolution Gibbs energy", "setting": "[2]; 1-octanol, 298.15 K", "value": 5.5, "unit": "kcal/mol"}, {"measurement": "ΔHsol0, standard molar dissolution enthalpy", "setting": "[2]; 1-octanol, 298.15 K", "value": 9.68, "unit": "kcal/mol"}, {"measurement": "ΔSsol0, standard molar dissolution entropy", "setting": "[2]; 1-octanol, 298.15 K", "value": 58.7, "unit": "J/mol⋅K"}, {"measurement": "mole fraction solubility (x)", "setting": "[2]; 1-octanol, 303.15 K", "value": 1.22, "unit": "x · 10^4"}, {"measurement": "mole fraction solubility (x)", "setting": "[2]; 1-octanol, 308.15 K", "value": 1.61, "unit": "x · 10^4"}, {"measurement": "mole fraction solubility (x)", "setting": "[2]; 1-octanol, 313.15 K", "value": 2.05, "unit": "x · 10^4"}, {"measurement": "mole fraction solubility (x)", "setting": "[2]; Buffer pH 7.4, 293.15 K", "value": 5.57, "unit": "x · 10^6"}, {"measurement": "A, parameter of the correlation equation lnx=A-B/T", "setting": "[2]; Buffer pH 7.4, 293.15–313.15 K", "value": "−2.82 ± 0.09"}, {"measurement": "B, parameter of the correlation equation lnx=A-B/T", "setting": "[2]; Buffer pH 7.4, 293.15–313.15 K", "value": "2719 ± 29"}, {"measurement": "mole fraction solubility (x)", "setting": "[2]; Buffer pH 7.4, 298.15 K", "value": 6.55, "unit": "x · 10^6"}, {"measurement": "ΔGsol0, standard molar dissolution Gibbs energy", "setting": "[2]; Buffer pH 7.4, 298.15 K", "value": 7.07, "unit": "kcal/mol"}, {"measurement": "ΔHsol0, standard molar dissolution enthalpy", "setting": "[2]; Buffer pH 7.4, 298.15 K", "value": 5.4, "unit": "kcal/mol"}, {"measurement": "ΔSsol0, standard molar dissolution entropy", "setting": "[2]; Buffer pH 7.4, 298.15 K", "value": "–23.4 J/mol⋅K"}, {"measurement": "mole fraction solubility (x)", "setting": "[2]; Buffer pH 7.4, 303.15 K", "value": 7.53, "unit": "x · 10^6"}, {"measurement": "mole fraction solubility (x)", "setting": "[2]; Buffer pH 7.4, 308.15 K", "value": 8.77, "unit": "x · 10^6"}, {"measurement": "mole fraction solubility (x)", "setting": "[2]; Buffer pH 7.4, 313.15 K", "value": 10.09, "unit": "x · 10^6"}, {"measurement": "mole fraction solubility (x)", "setting": "[2]; Hexane, 293.15 K", "value": 3.30, "unit": "x · 10^5"}, {"measurement": "A, parameter of the correlation equation lnx=A-B/T", "setting": "[2]; Hexane, 293.15–313.15 K", "value": "−2.93 ± 0.14"}, {"measurement": "B, parameter of the correlation equation lnx=A-B/T", "setting": "[2]; Hexane, 293.15–313.15 K", "value": "2165 ± 43"}, {"measurement": "mole fraction solubility (x)", "setting": "[2]; Hexane, 298.15 K", "value": 3.71, "unit": "x · 10^5"}, {"measurement": "ΔGsol0, standard molar dissolution Gibbs energy", "setting": "[2]; Hexane, 298.15 K", "value": 6.05, "unit": "kcal/mol"}, {"measurement": "ΔHsol0, standard molar dissolution enthalpy", "setting": "[2]; Hexane, 298.15 K", "value": 4.3, "unit": "kcal/mol"}, {"measurement": "ΔSsol0, standard molar dissolution entropy", "setting": "[2]; Hexane, 298.15 K", "value": -24.5, "unit": "J/mol⋅K"}, {"measurement": "mole fraction solubility (x)", "setting": "[2]; Hexane, 303.15 K", "value": 4.18, "unit": "x · 10^5"}, {"measurement": "mole fraction solubility (x)", "setting": "[2]; Hexane, 308.15 K", "value": 4.68, "unit": "x · 10^5"}, {"measurement": "mole fraction solubility (x)", "setting": "[2]; Hexane, 313.15 K", "value": 5.31, "unit": "x · 10^5"}]}, {"smiles": "CN1CCc2c(c3cc(Cl)ccc3n2CCc2n[nH]c(=S)n2C)C1", "note": "[V, 5-[2-(8-Chloro-2-methyl-1,2,3,4-tetrahydropyrido[4,3-b]indol-5-yl)ethyl]-4-methyl-2,4-dihydro[1,2,4]triazole-3-thione]", "values": [{"measurement": "Percentage 45Ca2+ of Control (Control – 100%)", "setting": "[1]; compound 0.01 μM", "value": "103.5 ± 7.7", "unit": "%"}, {"measurement": "Percentage 45Ca2+ of Control (Control – 100%)", "setting": "[1]; compound 0.1 μM", "value": "95.3 ± 1.0", "unit": "%"}, {"measurement": "Percentage 45Ca2+ of Control (Control – 100%)", "setting": "[1]; compound 0.5 μM", "value": "102.2 ± 6.3", "unit": "%"}, {"measurement": "Percentage 45Ca2+ of Control (Control – 100%)", "setting": "[1]; compound 1 μM", "value": "94.5 ± 4.7", "unit": "%"}, {"measurement": "Percentage 45Ca2+ of Control (Control – 100%)", "setting": "[1]; compound 5 μM", "value": "80.7 ± 10.5", "unit": "%"}, {"measurement": "Percentage 45Ca2+ of Control (Control – 100%)", "setting": "[1]; compound 10 μM", "value": "75.6 ± 10.0", "unit": "%"}, {"measurement": "Percentage 45Ca2+ of Control (Control – 100%)", "setting": "[1]; compound 50 μM", "value": "93.3 ± 11.0", "unit": "%"}, {"measurement": "Percentage 45Ca2+ of Control (Control – 100%)", "setting": "[1]; compound 100 μM", "value": "135.5% and 135.5 ± 9.4%"}, {"measurement": "inhibition of glutamate-induced calcium ion uptake, most efficient", "setting": "[1]; concentration of 5–10 μM", "value": "~20", "unit": "%"}, {"measurement": "overall inhibiting activity on calcium ion uptake, in words", "setting": "[1]", "value": "weak inhibitors of calcium ion uptake"}, {"measurement": "mole fraction solubility (x)", "setting": "[2]; 1-octanol, 293.15 K", "value": 1.15, "unit": "x · 10^4"}, {"measurement": "A, parameter of the correlation equation lnx=A-B/T", "setting": "[2]; 1-octanol, 293.15–313.15 K", "value": "6.03 ± 0.15"}, {"measurement": "B, parameter of the correlation equation lnx=A-B/T", "setting": "[2]; 1-octanol, 293.15–313.15 K", "value": "4423 ± 47"}, {"measurement": "mole fraction solubility (x)", "setting": "[2]; 1-octanol, 298.15 K", "value": 1.47, "unit": "x · 10^4"}, {"measurement": "ΔGsol0, standard molar dissolution Gibbs energy", "setting": "[2]; 1-octanol, 298.15 K", "value": 5.23, "unit": "kcal/mol"}, {"measurement": "ΔHsol0, standard molar dissolution enthalpy", "setting": "[2]; 1-octanol, 298.15 K", "value": 8.8, "unit": "kcal/mol"}, {"measurement": "ΔSsol0, standard molar dissolution entropy", "setting": "[2]; 1-octanol, 298.15 K", "value": 50.0, "unit": "J/mol⋅K"}, {"measurement": "mole fraction solubility (x)", "setting": "[2]; 1-octanol, 303.15 K", "value": 1.91, "unit": "x · 10^4"}, {"measurement": "mole fraction solubility (x)", "setting": "[2]; 1-octanol, 308.15 K", "value": 2.42, "unit": "x · 10^4"}, {"measurement": "mole fraction solubility (x)", "setting": "[2]; 1-octanol, 313.15 K", "value": 3.01, "unit": "x · 10^4"}, {"measurement": "mole fraction solubility (x)", "setting": "[2]; Buffer pH 7.4, 293.15 K", "value": 2.66, "unit": "x · 10^6"}, {"measurement": "A, parameter of the correlation equation lnx=A-B/T", "setting": "[2]; Buffer pH 7.4, 293.15–313.15 K", "value": "0.12 ± 0.16"}, {"measurement": "B, parameter of the correlation equation lnx=A-B/T", "setting": "[2]; Buffer pH 7.4, 293.15–313.15 K", "value": "3799 ± 50"}, {"measurement": "mole fraction solubility (x)", "setting": "[2]; Buffer pH 7.4, 298.15 K", "value": 3.25, "unit": "x · 10^6"}, {"measurement": "ΔGsol0, standard molar dissolution Gibbs energy", "setting": "[2]; Buffer pH 7.4, 298.15 K", "value": 7.34, "unit": "kcal/mol"}, {"measurement": "ΔHsol0, standard molar dissolution enthalpy", "setting": "[2]; Buffer pH 7.4, 298.15 K", "value": 7.55, "unit": "kcal/mol"}, {"measurement": "ΔSsol0, standard molar dissolution entropy", "setting": "[2]; Buffer pH 7.4, 298.15 K", "value": 2.9, "unit": "J/mol⋅K"}, {"measurement": "mole fraction solubility (x)", "setting": "[2]; Buffer pH 7.4, 303.15 K", "value": 4.01, "unit": "x · 10^6"}, {"measurement": "mole fraction solubility (x)", "setting": "[2]; Buffer pH 7.4, 308.15 K", "value": 4.95, "unit": "x · 10^6"}, {"measurement": "mole fraction solubility (x)", "setting": "[2]; Buffer pH 7.4, 313.15 K", "value": 6.07, "unit": "x · 10^6"}, {"measurement": "mole fraction solubility (x)", "setting": "[2]; Hexane, 293.15 K", "value": 5.42, "unit": "x · 10^4"}, {"measurement": "A, parameter of the correlation equation lnx=A-B/T", "setting": "[2]; Hexane, 293.15–313.15 K", "value": "2.45 ± 0.12"}, {"measurement": "B, parameter of the correlation equation lnx=A-B/T", "setting": "[2]; Hexane, 293.15–313.15 K", "value": "2922 ± 38"}, {"measurement": "mole fraction solubility (x)", "setting": "[2]; Hexane, 298.15 K", "value": 6.39, "unit": "x · 10^4"}, {"measurement": "ΔGsol0, standard molar dissolution Gibbs energy", "setting": "[2]; Hexane, 298.15 K", "value": 4.35, "unit": "kcal/mol"}, {"measurement": "ΔHsol0, standard molar dissolution enthalpy", "setting": "[2]; Hexane, 298.15 K", "value": 5.81, "unit": "kcal/mol"}, {"measurement": "ΔSsol0, standard molar dissolution entropy", "setting": "[2]; Hexane, 298.15 K", "value": 13.1, "unit": "J/mol⋅K"}, {"measurement": "mole fraction solubility (x)", "setting": "[2]; Hexane, 303.15 K", "value": 7.47, "unit": "x · 10^4"}, {"measurement": "mole fraction solubility (x)", "setting": "[2]; Hexane, 308.15 K", "value": 8.87, "unit": "x · 10^4"}, {"measurement": "mole fraction solubility (x)", "setting": "[2]; Hexane, 313.15 K", "value": 10.22, "unit": "x · 10^4"}]}]}
